From paper PMC3160846 (PLoS ONE, 2011)

Assays:
[1] = system: MDR1-expressing KB-VIN10 xenograft; experiment: KB-VIN10 xenograft in nude mice; assay type: in vivo; conditions: 5 days/week for 3 weeks; for decrease in tumor volume: Day 42, BPR1K653 15 mg/kg or VX680 30 mg/kg i.p.
Experimental: Male nude mice (5–6-weeks-old) were purchased from the National Laboratory Animal Centre (Taiwan R.O.C.). The animals were s.c. implanted with 5×10^5 KB cells or 1×10^6 KB-VIN10 cells mixed with equal volume of Matrigel (Becton Dickinson) in 0.1 mL at one flank per mouse via a 22-gauge needle. Tumor growth was examined twice a week after implantation, and the volume of tumor mass was measured with an electronic caliper and calculated as 1/2×length×width^2 in mm^3.
BPR1K653 was dissolved completely in a vehicle mixture of DMSO/cremophor/saline (1∶2∶7). Selected dose of BPR1K653 was decided base on the following conditions: 1/2 of the dosage that caused noticeable body weight loss (>10%) in the treated mice during toxicity study. […] The control group (5 mice) was treated with vehicle mixture only. Tumor size and animal body weight were measured every three days after drug treatment. Toxicity was evaluated based on the body weight reduction. At the end of the experiments (tumor size of the control >2000 mm^3), animals were euthanized with carbon dioxide.

[2] = system: IM9 cells; experiment: Clonogenic assay, IM9; assay type: cell-based, Human; conditions: Homo sapiens; IM9, lymphoma, p53 wild-type, MDR1 negative; read-out: IC50, anti-proliferative activity
Experimental: (§1) Human lung adenocarcinoma A549 cells and NTUB1 bladder cancer cells were maintained in RPMI supplied with 10% fetal bovine serum. […] KB-derived MRP1-expressing cell line, KB-7D, was maintained in growth medium supplemented with 7 µM VP-16.
(§2) Two hundred cells in logarithmic growth phase were seeded in a 6-well plate. The cells were exposed to various concentrations of the test drugs for a three-generation period. At the end of the incubation period, cells were fixed and stained with 50% ethanol containing 0.5% methylene blue for 30 min. The plates were washed five times with water and allowed to air-dry. Colonies were countered manually. […] Each value represents the average of at least three independent experiments run in triplicates.

[3] = system: MV4-11 cells; experiment: Clonogenic assay, MV4-11; assay type: cell-based, Human; conditions: Homo sapiens; MV4-11, leukemia, p53 mutant, MDR1 negative; read-out: IC50, anti-proliferative activity
Experimental: as §1, §2

[4] = system: NTU0.017 cells; experiment: Clonogenic assay, NTU0.017; assay type: cell-based, Human; conditions: for IC50: Homo sapiens, NTU0.017, paclitaxol resistant, MDR1 ↑, read-out: IC50, anti-proliferative activity
Experimental: as §1, §2

[5] = system: KB cells; experiment: Endo-replication (polyploidy), microscopy and flow cytometry, KB; assay type: cell-based, Human; conditions: 48 h
Experimental: Cell cycle progression was monitored using flow cytometry. After drug treatment, cells were trypsinized, washed with PBS and fixed in 80% ethanol at −20°C for 1 h. The fixed cells were stained with propidium iodide (containing RNase) at room temperature in the dark for 20 min. The DNA content was determined by a fluorescence-activated cell sorting IV flow cytometer (BD Biosciences, Franklin Lakes, NJ). For each analysis, 10,000 cells were counted and the percentage of cells in each phase was calculated using the ModFit LT software (Verity Software House, Topsham, ME). Experiments were repeated independently at least three times.

[6] = system: KB-VIN10 cells; experiment: Apoptosis assays (Annexin-V, caspase-3/-7 imaging, TUNEL, PARP cleavage), KB-VIN10; assay type: cell-based, Human; conditions: for apoptosis: phosphatidylserine translocation, caspase-3/-7 activity, DNA fragmentation: KB-VIN10, 48-72 h
Experimental: Cells were lysed with ice-cold lysis buffer (10 mM Tris, 1 mM EDTA, 1 mM DTT, 60 mM KCl, 0.5% NP-40 and protease inhibitors). […] The resolved proteins were electrophoretically transferred to PVDF membranes (Amersham Life Science, Amersham, U.K.) for Western blot analysis. […] Membranes were washed twice with TBST then subsequently incubated with a horseradish peroxidase-conjugated secondary antibody (Santa Cruz Biotechnology, Santa Cruz, CA) for 1 hour at room temperature. Immunoreactivity was detected by Enhanced Chemiluminescence (Amersham International, Buckingham, U.K.) and autoradiography. Experiments were repeated independently at least two times.
The cells were analyzed by fluorescence microscopy.
Briefly, cells were cultured in chamber-slides and incubated with test agents for various durations. […] Cells were viewed with a UV-enabled inverted-microscope at an excitation wavelength of 540 nm–560 nm and emission at 610 nm. Experiments were repeated independently at least two times.
Under in vitro conditions, cells were seeded and cultured in 8-well chamber-slides, and treated with various compounds. The treated cells were washed with PBS, fixed with 4% paraformaldehyde for 30 min on ice, and permeabilized with PBST at room temperature. […] Cells were counterstained with DAPI to detect the nucleus, and examined by fluorescence microscopy. Amount of red fluorescence labeled (DNA fragmented) cells were counted and percentage of apoptotic cells were calculated as follows: Amount of the red fluorescence labeled cells ÷ Total cells available×100. Experiments were repeated independently at least two times.

[7] = system: KB cells; experiment: Western blot of Histone H3 phosphorylation and cyclin B1, KB; assay type: cell-based, Human; conditions: 48 h, BPR1K653 12, 24, 36 nM, VX680 170 and 255 nM
Experimental: Cells were lysed with ice-cold lysis buffer (10 mM Tris, 1 mM EDTA, 1 mM DTT, 60 mM KCl, 0.5% NP-40 and protease inhibitors). […] The resolved proteins were electrophoretically transferred to PVDF membranes (Amersham Life Science, Amersham, U.K.) for Western blot analysis. The membranes were blocked with 5% non-fat milk at room temperature for two hours, washed twice with TBST (1% Tween) and then incubated with either anti-phosphorylated Aurora-A/-B/-C kinase antibody (#2914S, Cell Signaling Technology, Danvers, MA), anti-Aurora-A and -B kinase antibody (#ab1287 and #ab2254, Abcam, Cambridge, MA), anti-phosphorylated Histone H3 antibody (#9701, Cell Signaling Technology, Danvers, MA), anti-Histone H3 antibody (#9715, Cell Signaling Technology, Danvers, MA), anti-Cyclin B1 antibody or anti-Actin antibody (#sc-245 and #sc-130065, Santa Cruz Biotechnology, Santa Cruz, CA) overnight at 4°C. Membranes were washed twice with TBST then subsequently incubated with a horseradish peroxidase-conjugated secondary antibody (Santa Cruz Biotechnology, Santa Cruz, CA) for 1 hour at room temperature. Immunoreactivity was detected by Enhanced Chemiluminescence (Amersham International, Buckingham, U.K.) and autoradiography. Experiments were repeated independently at least two times.

loss of body weight after treatment ([1]; 15 mg/kg i.p., vs control group) | SMILES | decrease in tumor volume [1] | IC50 [2] | IC50 [3] | IC50 [4] | Fold difference as compare to the IC50 in the respective parental cells ([4]; NTU0.017 vs NTUB1) | formation of polyploidy (populations >4N) [5] | cleavage of PARP ([6]; KB-VIN10, 2× IC50 of KB, 72 h, Western blot) | apoptosis: phosphatidylserine translocation, caspase-3/-7 activity, DNA fragmentation [6] | Histone H3 phosphorylation and cyclin B1 expression [7]
less than 10% | CN(C)Cc1ccccc1NC(=O)Nc1ccc(CCNc2ncnc3oc(-c4ccccc4)c(Cl)c23)cc1 [BPR1K653] | ~50% | 4 ± 2 nM | 5 nM | 10 ± 4 nM | 1 fold | induced the formation of polyploidy | cleavage of PARP was only shown | induced the caspase-3/-7 activity and DNA fragmentation | inhibition of Histone H3 phosphorylation and down-regulation of cyclin B1 expression
– | Cc1cc(Nc2cc(N3CCN(C)CC3)nc(Sc3ccc(NC(=O)C4CC4)cc3)n2)[nH]n1 [VX680] | did not exhibit significant tumor growth inhibitory effect | 31 ± 16 nM | 15 ± 4 nM | 6770 ± 1080 nM | – | induced the formation of polyploidy in KB cells | – | not in the MDR1-expressing KB-VIN10 cells | inhibited the phosphorylation of Histone H3 and the expression of cyclin B1
